In US12338262B2 (Forward Therapeutics, Inc., priority 2022, dated 2025):

biological target: TNF-α (Homo sapiens, UniProt P01375); assay: TNF-α Induced HEK Blue Cellular Assay; type: cell-based; settings: HEK Blue TNFα reporter cells, TNF-α 100 pg/ml, 24 hrs at 37° C., secreted alkaline phosphatase (QUANTI-Blue, 620 nm)
Protocol: TNF-α Induced HEK Bluet Cellular Assay
Test articles were diluted in DMSO and serially diluted into 384 well assay plate (Corning 3765), at final concentrations ranging from […] to 0.5 nM. HEK Blue™ TNFα reporter cells were added at a final density of 10,000 cell per well in assay media [DMEM (Gibco, cat #21063-029), 10% fetal bovine serum (ExcelBio, cat #FND500), 1% Penicillin-Streptomycin (Solarbio, cat #P1400-100]. TNF-α (R&D 210-TA-020/CF) was then added to the assay plate at a final concentration of 100 pg/ml. This plate was then incubated for 24 hrs at 37° C. and 5% CO2. Secreted alkaline phosphatase expression was then measured using QUANTI-Blue™ (Invivogen), according to manufacturer instructions and read on an Envision microplate reader at 620 nm.
Inhibition data for test compound over a range of concentration was plotted as percentage inhibition of the test compound (100%=maximum inhibition). IC50 values were determined after correcting for background [(sample read-mean of low control)/(mean of high control-mean of low control)] where by the low control is DMSO without stimulation and high control is DMSO with stimulation. The IC50 is defined as the concentration of test compound which produces 50% inhibition and was quantified using the 4 parameter logistic equation to fit the data.

TNF-α, sequence (P01375 77-233 limits assumed): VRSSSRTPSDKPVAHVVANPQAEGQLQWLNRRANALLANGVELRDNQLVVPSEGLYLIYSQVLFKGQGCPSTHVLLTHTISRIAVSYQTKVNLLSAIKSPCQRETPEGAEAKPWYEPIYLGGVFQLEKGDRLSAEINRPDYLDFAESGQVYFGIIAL

Row | SMILES | IC50 [µM]
1 | Cc1nc2cc(F)c(-c3cnc(P4(=O)CCCC4)nc3)nc2c(N[C@H](C)c2cc(C#N)ccc2F)c1Cl [Example 49, 3-[(1R)-1-({3-chloro-7-fluoro-2-methyl-6-[2-(1-oxo-1lambda5-phospholan-1-yl)pyrimidin-5-yl]-1,5-naphthyridin-4-yl}amino)ethyl]-4-fluorobenzonitrile] | ≤ 0.1
2 | Cc1nc2cc(F)c(-c3cnc(P(C)(C)=O)nc3)nc2c(N[C@H](C)c2cc(C#N)cc(F)c2F)c1Cl [Example 131, 3-[(1R)-1-({3-chloro-6-[2-(dimethylphosphoryl)pyrimidin-5-yl]-7-fluoro-2-methyl-1,5-naphthyridin-4-yl}amino)ethyl]-4,5-difluorobenzonitrile] | ≤ 1
3 | CC[C@@H](Nc1c(Cl)c(C)nc2cc(F)c(-c3cnc(P(C)(C)=O)nc3)nc12)c1ccccc1F [Example 16, 3-chloro-6-[2-(dimethylphosphoryl)pyrimidin-5-yl]-7-fluoro-N-[(1R)-1-(2-fluorophenyl)propyl]-2-methyl-1,5-naphthyridin-4-amine] | ≤ 0.1
4 | CCC(Nc1c(Cl)c(C)nc2cc(F)c(-c3ccc(P(C)(C)=O)nc3)nc12)c1cnn(C)c1 (stereo not shown) [Example 104, 3-chloro-6-[6-(dimethylphosphoryl)pyridin-3-yl]-7-fluoro-2-methyl-N-[1-(1-methylpyrazol-4-yl)propyl]-1,5-naphthyridin-4-amine] | ≤ 1
5 | Cc1nc2cc(F)c(-c3ccc(P(C)(C)=O)nc3)nc2c(N[C@H](C)c2cccc(C(F)(F)F)c2)c1Cl [Example 93, 3-chloro-6-[6-(dimethylphosphoryl)pyridin-3-yl]-7-fluoro-2-methyl-N-[(1R)-1-[3-(trifluoromethyl)phenyl]ethyl]-1,5-naphthyridin-4-amine] | ≤ 0.1
6 | CC[C@H](Nc1c(Cl)c(C)nc2cc(F)c(-c3cnc(P(C)(C)=O)nc3)cc12)c1cccc(F)c1F [Example 115, (S)-(5-(3-chloro-4-((1-(2,3-difluorophenyl)propyl)amino)-7-fluoro-2-methylquinolin-6-yl)pyrimidin-2-yl)dimethylphosphine oxide] | ≤ 1
7 | Cc1nc2cc(F)c(-c3ccc(P(C)(C)=O)nc3)nc2c(NC2(c3ccccn3)CC2)c1Cl [Example 111, 3-chloro-6-[6-(dimethylphosphoryl)pyridin-3-yl]-7-fluoro-2-methyl-N-[1-(pyridin-2-yl)cyclopropyl]-1,5-naphthyridin-4-amine] | ≤ 0.1
8 | Cc1nc2cc(F)c(-c3ccc(P(C)(C)=O)nc3)nc2c(N[C@H](C)c2cc(F)cc(F)c2)c1Cl [Example 85, 3-chloro-N-[(1R)-1-(3,5-difluorophenyl)ethyl]-6-[6-(dimethylphosphoryl)pyridin-3-yl]-7-fluoro-2-methyl-1,5-naphthyridin-4-amine] | ≤ 1
9 | CCP(=O)(CC)c1ccc(-c2nc3c(N[C@H](C)c4cc(C#N)ccc4F)c(Cl)c(C)nc3cc2F)cn1 [Example 42, 3-[(1R)-1-({3-chloro-6-[6-(diethylphosphoryl)pyridin-3-yl]-7-fluoro-2-methyl-1,5-naphthyridin-4-yl}amino)ethyl]-4-fluorobenzonitrile] | ≤ 0.1
10 | Cc1nc2cc(F)c(-c3cnc(P(C)(C)=O)nc3)nc2c(N[C@H](C)c2cccc(C#N)c2)c1Cl [Example 46, 3-[(1R)-1-({3-chloro-6-[2-(dimethylphosphoryl)pyrimidin-5-yl]-7-fluoro-2-methyl-1,5-naphthyridin-4-yl}amino)ethyl]benzonitrile] | ≤ 0.1
11 | Cc1nc2cc(F)c(-c3cnc(P(C)(C)=O)nc3)nc2c(N[C@H](C)c2ccccc2F)c1Cl [Example 7, 3-chloro-6-[2-(dimethylphosphoryl)pyrimidin-5-yl]-7-fluoro-N-[(1R)-1-(2-fluorophenyl)ethyl]-2-methyl-1,5-naphthyridin-4-amine] | ≤ 1
12 | CC[C@H](Nc1c(Cl)c(C)nc2cc(F)c(-c3ccc(P(C)(C)=O)nc3)c(F)c12)c1ncccc1F [Example 73, (S)-(5-(3-chloro-5,7-difluoro-4-((1-(3-fluoropyridin-2-yl)propyl)amino)-2-methylquinolin-6-yl)pyridin-2-yl)dimethylphosphine oxide] | ≤ 1
13 | Cc1cc(P(C)(C)=O)ncc1-c1nc2c(N[C@H](C)c3cc(C#N)ccc3F)c(Cl)c(C)nc2cc1F [Example 61, 3-[(1R)-1-({3-chloro-6-[6-(dimethylphosphoryl)-4-methylpyridin-3-yl]-7-fluoro-2-methyl-1,5-naphthyridin-4-yl}amino)ethyl]-4-fluorobenzonitrile] | ≤ 1
14 | Cc1nc2cc(F)c(-c3ccc(P4(=O)CCOCC4)nc3)nc2c(N[C@H](C)c2cccc(F)c2F)c1Cl [Example 143, 4-[5-(7-chloro-8-{[(1R)-1-(2,3-difluorophenyl)ethyl]amino}-3-fluoro-6-methyl-1,5-naphthyridin-2-yl)pyridin-2-yl]-1,4lambda5-oxaphosphinan-4-one] | 10 to 30
15 | Cc1nc2cc(F)c(-c3ccc(P(C)(C)=O)nc3)nc2c(N[C@H](C)c2ncccc2F)c1Cl (single isomer, unassigned) [Example 116] | ≤ 0.1
16 | Cc1nc2cc(F)c(-c3cnc(P(C)(C)=O)nc3)nc2c(NC(c2ccccc2F)C(F)F)c1Cl (stereo not shown) [Example 29, 3-chloro-N-[2,2-difluoro-1-(2-fluorophenyl)ethyl]-6-[2-(dimethylphosphoryl)pyrimidin-5-yl]-7-fluoro-2-methyl-1,5-naphthyridin-4-amine] | ≤ 1
17 | Cc1nc2cc(F)c(-c3ccc(P(C)(C)=O)nc3)nc2c(N[C@@H](c2cccc(F)c2F)C(F)F)c1Cl (single isomer, unassigned) [Example 145] | 10 to 30
18 | CC[C@H](Nc1c(Cl)c(C)nc2cc(F)c(-c3ccc(P(C)(C)=O)nc3)nc12)c1cc(F)cc(F)c1 [Example 148, 3-chloro-N-[(1S)-1-(3,5-difluorophenyl)propyl]-6-[6-(dimethylphosphoryl)pyridin-3-yl]-7-fluoro-2-methyl-1,5-naphthyridin-4-amine] | 1 to 10
19 | Cc1nc2cc(F)c(-c3ccc(P(C)(C)=O)nc3)nc2c(N[C@H](C)c2cccnc2)c1Cl [Example 75, 3-chloro-6-[6-(dimethylphosphoryl)pyridin-3-yl]-7-fluoro-2-methyl-N-[(1R)-1-(pyridin-3-yl)ethyl]-1,5-naphthyridin-4-amine] | ≤ 0.1
20 | Cc1nc2cc(F)c(N3CCC(P(C)(C)=O)CC3)nc2c(N[C@H](C)c2cc(C#N)ccc2F)c1Cl [Example 31, 3-[(1R)-1-({3-chloro-6-[4-(dimethylphosphoryl)piperidin-1-yl]-7-fluoro-2-methyl-1,5-naphthyridin-4-yl}amino)ethyl]-4-fluorobenzonitrile] | ≤ 0.1
21 | Cc1nc2cc(F)c(-c3ccc(P(C)(C)=O)nc3)nc2c(N[C@H](C)c2ccccn2)c1Cl [Example 83, 3-chloro-6-[6-(dimethylphosphoryl)pyridin-3-yl]-7-fluoro-2-methyl-N-[(1R)-1-(pyridin-2-yl)ethyl]-1,5-naphthyridin-4-amine] | ≤ 1
22 | CCOP(=O)(OCC)c1ccc(-c2nc3c(N[C@H](C)c4cc(C#N)ccc4F)c(Cl)c(C)nc3cc2F)cn1 [Example 32, diethyl 5-(7-chloro-8-{[(1R)-1-(5-cyano-2-fluorophenyl)ethyl]amino}-3-fluoro-6-methyl-1,5-naphthyridin-2-yl)pyridin-2-ylphosphonate] | ≤ 0.1
23 | Cc1nc2cc(F)c(-c3ccc(P(C)(C)=O)nc3)nc2c(N[C@@H](C)c2ncccc2F)c1Cl (single isomer, unassigned) [Example 117] | 1 to 10
24 | Cc1nc2cc(F)c(-c3cnc(P(C)(C)=O)c(F)c3)nc2c(N[C@H](C)c2cc(C#N)ccc2F)c1Cl [Example 120, 3-[(1R)-1-({3-chloro-6-[6-(dimethylphosphoryl)-5-fluoropyridin-3-yl]-7-fluoro-2-methyl-1,5-naphthyridin-4-yl}amino)ethyl]-4-fluorobenzonitrile] | ≤ 0.1
25 | CCC(Nc1c(Cl)c(C)nc2cc(F)c(-c3ccc(P(C)(C)=O)nc3)nc12)c1ccn(C)n1 (stereo not shown) [Example 149, 3-chloro-6-[6-(dimethylphosphoryl)pyridin-3-yl]-7-fluoro-2-methyl-N-[1-(1-methylpyrazol-3-yl)propyl]-1,5-naphthyridin-4-amine] | 10 to 30
26 | Cc1nc2cc(F)c(-c3ccc(P(C)(C)=O)nc3)nc2c(N[C@H](C)c2ccc(F)c(F)c2)c1Cl [Example 80, 3-chloro-N-[(1R)-1-(3,4-difluorophenyl)ethyl]-6-[6-(dimethylphosphoryl)pyridin-3-yl]-7-fluoro-2-methyl-1,5-naphthyridin-4-amine] | ≤ 1
27 | Cc1nc2cc(F)c(-c3cnc(P(C)(C)=O)c(F)c3)cc2c(N[C@H](C)c2cc(F)cc(F)c2)c1Cl [Example 129, 3-chloro-N-[(1R)-1-(3,5-difluorophenyl)ethyl]-6-[6-(dimethylphosphoryl)-5-fluoropyridin-3-yl]-7-fluoro-2-methylquinolin-4-amine] | 10 to 30
28 | COP(=O)(O)c1ccc(-c2nc3c(N[C@H](C)c4cc(C#N)ccc4F)c(Cl)c(C)nc3cc2F)cn1 [Example 21, ammonium methyl 5-(7-chloro-8-{[(1R)-1-(5-cyano-2-fluorophenyl)ethyl]amino}-3-fluoro-6-methyl-1,5-naphthyridin-2-yl)pyridin-2-ylphosphonate] | ≤ 1
